# Measured values as given in the supplement of paper PMC11208160.
# Assay: recombinant UMI read abundance after kanamycin selection (control-corrected) (log10(CPM+1)); higher = more efficient recombination; extreme values may be limits of the assay; sequences stand for … in AGTGCAGAGAAAATCGGCCAGTTTTCTCTGCCTGCAGTCCGCATGCCGTGGGACCCCTTGGGTTCTAACCTGTTGCCTAGATTTATGCAGCGGACTGCCTTTCTCCCAAAGTGATAAACCGG…AGGTTGGTTTCACT; site = the 11-nt donor
# Method in brief: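 In a pooled Escherichia coli screen for the IS621 bridge recombinase, donor and donor-binding-loop pairs were each placed with a 12-nt UMI on a plasmid bearing a promoterless kanamycin gene. This library was co-electroporated with a target plasmid encoding a fixed target and T7-inducible recombinase, and cells were plated either on IPTG (0.07 mM) plus kanamycin or without selection, in two replicates each. Recombinant UMIs were PCR-amplified across the donor–target junction and sequenced, and counts were converted to CPM, averaged over replicates, scaled by control-derived factors and reported as log10(CPM+1).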
row,Sequence,recombinant UMI read abundance (log10)
1,GTTTGAACATGGACCGGTTTTCCCGGTAATCCGTATTTGGC (site GTTAGAACTGC),0
2,GTTTGAACATGGACCGGTTTTCCCGGTAATCCGTATTTGGC (site GTTCGAACTGC),0
3,GTTTGAACATGGACCGGTTTTCCCGGTAATCCGTATTTGGC (site GTTGGAACTGC),0
4,GTTTGAACATGGACCGGTTTTCCCGGTAATCCGTATTTGGC (site GTTTGAACTGC),0
5,GTTTGCACATGGACCGGTTTTCCCGGTAATCCGTATTTGCA (site GTTTGCACTTG),0.292
6,GTTTGGACATGGACCGGTTTTCCCGGTAATCCGTATTTGGA (site GTTTGGACTTC),0.0184
7,TAAAACTCATGGACCGGTTTTCCCGGTAATCCGTATTTGGG (site TAAAACTCTCC),0.00919
8,TAAAATACATGGACCGGTTTTCCCGGTAATCCGTATTTGCA (site TAAAATACTTG),0
9,TAAAATACATGGACCGGTTTTCCCGGTAATCCGTATTTGCA (site TACAATACTTG),0.953
10,TAAAATACATGGACCGGTTTTCCCGGTAATCCGTATTTGCA (site TAGAATACTTG),0
11,TAAAATACATGGACCGGTTTTCCCGGTAATCCGTATTTGCA (site TATAATACTTG),0.614
12,TAAACCGCATGGACCGGTTTTCCCGGTAATCCGTATTTGCG (site TAAACCGCTCG),1.29
13,TAAAGACCATGGACCGGTTTTCCCGGTAATCCGTATTTGTA (site TAAAGACCTTA),0.299
14,TAAAGACCATGGACCGGTTTTCCCGGTAATCCGTATTTGTA (site TAAAGCCCTTA),0.624
15,TAAAGACCATGGACCGGTTTTCCCGGTAATCCGTATTTGTA (site TAAAGGCCTTA),0.257
16,TAAAGACCATGGACCGGTTTTCCCGGTAATCCGTATTTGTA (site TAAAGTCCTTA),0.166
17,TAAAGAGCATGGACCGGTTTTCCCGGTAATCCGTATTTGGG (site TAAAGAGCTCC),0.356
18,TAAAGAGCATGGACCGGTTTTCCCGGTAATCCGTATTTGGG (site TAACGAGCTCC),0.0368
19,TAAAGAGCATGGACCGGTTTTCCCGGTAATCCGTATTTGGG (site TAAGGAGCTCC),0.0278
20,TAAAGAGCATGGACCGGTTTTCCCGGTAATCCGTATTTGGG (site TAATGAGCTCC),0.00709
21,TAAAGCTCATGGACCGGTTTTCCCGGTAATCCGTATTTGTT (site TAAAGCTCTAA),1.48
22,TAAAGTCCATGGACCGGTTTTCCCGGTAATCCGTATTTGGA (site TAAAGTCCTTA),0.0112
23,TAAAGTCCATGGACCGGTTTTCCCGGTAATCCGTATTTGGA (site TAAAGTCCTTC),0.231

row,Sequence,recombinant UMI read abundance (log10)
1,TAAAGTCCATGGACCGGTTTTCCCGGTAATCCGTATTTGGA (site TAAAGTCCTTG),0
2,TAAAGTCCATGGACCGGTTTTCCCGGTAATCCGTATTTGGA (site TAAAGTCCTTT),0.978
3,TAAAGTCCATGGACCGGTTTTCCCGGTAATCCGTATTTGTC (site TAAAGTCCTAA),0.0955
4,TAAAGTCCATGGACCGGTTTTCCCGGTAATCCGTATTTGTC (site TAAAGTCCTCA),0.00821
5,TAAAGTCCATGGACCGGTTTTCCCGGTAATCCGTATTTGTC (site TAAAGTCCTGA),0.327
6,TAAAGTCCATGGACCGGTTTTCCCGGTAATCCGTATTTGTC (site TAAAGTCCTTA),0.00692
7,TAAAGTCCATGGACCGGTTTTCCCGGTAATCCGTATTTGTT (site TAAAGTCCTAA),0.293
8,TAAAGTCCATGGACCGGTTTTCCCGGTAATCCGTATTTGTT (site TAAAGTCCTCA),0.0132
9,TAAAGTCCATGGACCGGTTTTCCCGGTAATCCGTATTTGTT (site TAAAGTCCTGA),0
10,TAAAGTCCATGGACCGGTTTTCCCGGTAATCCGTATTTGTT (site TAAAGTCCTTA),0
11,TAAAGTTCATGGACCGGTTTTCCCGGTAATCCGTATTTGTA (site TAAAGTACTTA),0.0179
12,TAAAGTTCATGGACCGGTTTTCCCGGTAATCCGTATTTGTA (site TAAAGTCCTTA),0.153
13,TAAAGTTCATGGACCGGTTTTCCCGGTAATCCGTATTTGTA (site TAAAGTGCTTA),0.00586
14,TAAAGTTCATGGACCGGTTTTCCCGGTAATCCGTATTTGTA (site TAAAGTTCTTA),1.59
15,TAAATAACATGGACCGGTTTTCCCGGTAATCCGTATTTGCT (site TAAATAACTAG),0
16,TAAATACCATGGACCGGTTTTCCCGGTAATCCGTATTTGCG (site TAAATACCTCG),0
17,TAAATGCCATGGACCGGTTTTCCCGGTAATCCGTATTTGGA (site TAAATGCCTTC),0.2
18,TAACACGCATGGACCGGTTTTCCCGGTAATCCGTATTTGAG (site TAACACGCTCT),1.48
19,TAACAGACATGGACCGGTTTTCCCGGTAATCCGTATTTGGT (site TAACAGACTAC),0.99
20,TAACATTCATGGACCGGTTTTCCCGGTAATCCGTATTTGGG (site TAACATTCTCC),0.809
21,TAACCGGCATGGACCGGTTTTCCCGGTAATCCGTATTTGGT (site TAACCGGCTAC),0.35
22,TAACGAACATGGACCGGTTTTCCCGGTAATCCGTATTTGAC (site TAACGAACTGT),2.86
23,TAACGGCCATGGACCGGTTTTCCCGGTAATCCGTATTTGAA (site TAACGGCCTTT),0.00367

row,Sequence,recombinant UMI read abundance (log10)
1,TAACTACCATGGACCGGTTTTCCCGGTAATCCGTATTTGTT (site TAACTACCTAA),0.00587
2,TAACTAGCATGGACCGGTTTTCCCGGTAATCCGTATTTGAA (site TAACTAGCTTT),1.57
3,TAACTAGCATGGACCGGTTTTCCCGGTAATCCGTATTTGAA (site TACCTAGCTTT),0.34
4,TAACTAGCATGGACCGGTTTTCCCGGTAATCCGTATTTGAA (site TAGCTAGCTTT),0.00713
5,TAACTAGCATGGACCGGTTTTCCCGGTAATCCGTATTTGAA (site TATCTAGCTTT),0
6,TAACTTACATGGACCGGTTTTCCCGGTAATCCGTATTTGAT (site TAACTTACTAT),0.731
7,TAAGATTCATGGACCGGTTTTCCCGGTAATCCGTATTTGTT (site AAAGATTCTAA),0
8,TAAGATTCATGGACCGGTTTTCCCGGTAATCCGTATTTGTT (site CAAGATTCTAA),1.43
9,TAAGATTCATGGACCGGTTTTCCCGGTAATCCGTATTTGTT (site GAAGATTCTAA),0
10,TAAGATTCATGGACCGGTTTTCCCGGTAATCCGTATTTGTT (site TAAGATTCTAA),2.02
11,TAAGCAGCATGGACCGGTTTTCCCGGTAATCCGTATTTGGC (site TAAGCAGCTGC),2.92
12,TAAGCTGCATGGACCGGTTTTCCCGGTAATCCGTATTTGTG (site TAAGCTGCTCA),0.65
13,TAAGCTGCATGGACCGGTTTTCCCGGTAATCCGTATTTGTG (site TCAGCTGCTCA),0.00238
14,TAAGCTGCATGGACCGGTTTTCCCGGTAATCCGTATTTGTG (site TGAGCTGCTCA),0.0127
15,TAAGCTGCATGGACCGGTTTTCCCGGTAATCCGTATTTGTG (site TTAGCTGCTCA),0.00901
16,TAAGGGCCATGGACCGGTTTTCCCGGTAATCCGTATTTGAG (site TAAGGGCCTCT),0.221
17,TAAGTATCATGGACCGGTTTTCCCGGTAATCCGTATTTGAC (site CTAGTATCTGT),1.88
18,TAAGTATCATGGACCGGTTTTCCCGGTAATCCGTATTTGAC (site TAAGTATCTGT),3.03
19,TAATCTACATGGACCGGTTTTCCCGGTAATCCGTATTTGAG (site TAATCTACTCT),0.521
20,TAATGAACATGGACCGGTTTTCCCGGTAATCCGTATTTGGG (site TAATGAACTCC),0.00333
21,TAATGAACATGGACCGGTTTTCCCGGTAATCCGTATTTGGG (site TAATGACCTCC),0.0112
22,TAATGAACATGGACCGGTTTTCCCGGTAATCCGTATTTGGG (site TAATGAGCTCC),0.0277
